For three compounds, Ki results are on record in US5550212A, “Analogues of hGH-RH(1-29)NH2 having antagonistic activity” (The Administrators of the Tulane Educational Fund, priority 1993, dated 1996).

Non-standard residues stand in square brackets, D forms with d. Residues, ends and D or L forms follow the SMILES beside them. *: point of attachment. Acetyl(1-naphthyl) = O=C(Cc1cccc2ccccc12)*; Phe(4-Cl) = N[C@@H](Cc1ccc(Cl)cc1)C(=O)O; Isobutyryl = CC(C)C(=O)*; Nle = CCCC[C@H](N)C(=O)O; Abu = CC[C@H](N)C(=O)O

The assay addresses T1, rat pituitary GH-RH receptors (Rattus norvegicus, UniProt Q02644).
T1 construct: from tissue; host or cells: rat anterior pituitary (male Sprague-Dawley), crude membranes
T1 sequence (Q02644 23-464): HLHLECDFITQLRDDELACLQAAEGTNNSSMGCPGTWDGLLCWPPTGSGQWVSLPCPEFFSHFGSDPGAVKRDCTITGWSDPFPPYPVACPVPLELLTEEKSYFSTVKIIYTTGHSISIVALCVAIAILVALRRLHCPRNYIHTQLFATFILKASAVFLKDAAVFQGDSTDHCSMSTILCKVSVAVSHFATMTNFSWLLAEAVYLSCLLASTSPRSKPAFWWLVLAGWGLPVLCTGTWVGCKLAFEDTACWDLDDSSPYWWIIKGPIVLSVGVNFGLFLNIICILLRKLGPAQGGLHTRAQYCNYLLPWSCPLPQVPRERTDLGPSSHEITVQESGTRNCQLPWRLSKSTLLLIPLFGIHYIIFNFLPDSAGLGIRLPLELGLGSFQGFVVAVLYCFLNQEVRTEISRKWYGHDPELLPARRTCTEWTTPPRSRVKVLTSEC
The assay can be described thus: GH-RH binding assay, competitive binding on rat anterior pituitary membrane homogenates. To be noted: competition with labelled [His1,Nle27]hGH-RH(1-32)NH2. As to the method: GH-RH Binding Assay. A sensitive radioreceptor binding assay was developed to determine the binding characteristics of the antagonists of GH-RH (G. Halmos, A. V. Schally et al., Receptor 3, 87-97, 1993), hereby incorporated by reference. The assay is based on binding of labelled [His^1,Nle^27 ]hGH-RH(1-32)NH2 to rat anterior pituitary membrane homogenates. Iodinated derivatives of [His^1,Nle^27 ]hGH-RH(1-32)NH2 are prepared by the chloramine-T method (F. C. Greenwood et al., Biochemistry 89:114-123, 1963), hereby incorporated by reference. Pituitaries from male Sprague-Dawley rats (250-300 g) are used to prepare crude membranes. For saturation binding analyses, membrane homogenates are incubated with at least 6 concentrations of [His^1,^25 I-Tyr^10,Nle^27 ]hGH-RH(1-32)NH2, ranging from 0.005 to 0.35 nM in the presence or absence of excess unlabelled peptide (1 μM). The pellet is counted for radioactivity in a y-counter. The affinities of the antagonist peptides tested to rat pituitary GH-RH receptors are determined in competitive binding experiments. The final binding affinities are estimated by Ki (dissociation constant of the inhibitor-receptor complex) and are determined by the Ligand PC computer program of Munson and Rodbard as modified by McPherson. Relative affinities compared to [Ac-Tyr^1,D-Arg^2 ]hGH-RH(1-29)NH2, the Standard antagonist, are calculated as the ratio of Ki of the tested GH-RH antagonist to the Ki of the Standard antagonist.
Compound `CCCC[C@H](NC(=O)[C@@H](NC(=O)[C@H](CC(=O)O)NC(=O)[C@H](CCC(N)=O)NC(=O)[C@H](CC(C)C)NC(=O)[C@H](CC(C)C)NC(=O)[C@H](CCCCN)NC(=O)[C@H](CCCNC(=N)N)NC(=O)[C@H](C)NC(=O)[C@H](CO)NC(=O)[C@H](CC(C)C)NC(=O)[C@H](CCC(N)=O)NC(=O)[C@H](CC)NC(=O)[C@H](CC(C)C)NC(=O)[C@@H](NC(=O)[C@H](CCCCN)NC(=O)[C@H](CCCNC(=N)N)NC(=O)[C@H](Cc1ccc(O)cc1)NC(=O)[C@H](CO)NC(=O)[C@H](CC(N)=O)NC(=O)[C@@H](NC(=O)[C@H](Cc1ccc(Cl)cc1)NC(=O)[C@@H](NC(=O)[C@H](C)NC(=O)[C@H](CC(=O)O)NC(=O)[C@@H](CCCNC(=N)N)NC(=O)[C@H](Cc1ccc(O)cc1)NC(=O)Cc1cccc2ccccc12)[C@@H](C)CC)[C@@H](C)O)C(C)C)[C@@H](C)CC)C(=O)N[C@@H](CO)C(=O)N[C@@H](CCCNC(=N)N)C(N)=O` [Peptide 1, [Nac^0,D-Arg^2, Phe(pCl)^6,Abu^15, Nle^27]hGH-RH(1-29)NH2] ({Acetyl(1-naphthyl)}-Y[dR]DAI[Phe(4-Cl)]TNSYRKVL[Abu]QLSARKLLQDI[Nle]SR-NH2) registered a Ki of 0.04 ± 0.01 nM. `CCCC[C@H](NC(=O)[C@@H](NC(=O)[C@H](CC(=O)O)NC(=O)[C@H](CCC(N)=O)NC(=O)[C@H](CC(C)C)NC(=O)[C@H](CC(C)C)NC(=O)[C@H](CCCCN)NC(=O)[C@H](CCCNC(=N)N)NC(=O)[C@H](C)NC(=O)[C@H](CO)NC(=O)[C@H](CC(C)C)NC(=O)[C@H](CCC(N)=O)NC(=O)[C@H](CC)NC(=O)[C@H](CC(C)C)NC(=O)[C@@H](NC(=O)[C@H](CCCCN)NC(=O)[C@H](CCCNC(=N)N)NC(=O)[C@H](Cc1ccc(O)cc1)NC(=O)[C@H](CO)NC(=O)[C@H](CC(N)=O)NC(=O)[C@@H](NC(=O)[C@H](Cc1ccc(Cl)cc1)NC(=O)[C@@H](NC(=O)[C@H](C)NC(=O)[C@H](CC(=O)O)NC(=O)[C@@H](CCCNC(=N)N)NC(=O)[C@H](Cc1c[nH]cn1)NC(=O)Cc1cccc2ccccc12)[C@@H](C)CC)[C@@H](C)O)C(C)C)[C@@H](C)CC)C(=O)N[C@@H](CO)C(=O)N[C@@H](CCCNC(=N)N)C(N)=O` [Peptide 5, [Nac^0 -His^1,D-Arg^2,Phe(pCl)^6,Abu^15, Nle^27]hGH-RH(1-29)NH2] ({Acetyl(1-naphthyl)}-H[dR]DAI[Phe(4-Cl)]TNSYRKVL[Abu]QLSARKLLQDI[Nle]SR-NH2) registered a Ki of 0.05 ± 0.01 nM.

`CCCC[C@H](NC(=O)[C@@H](NC(=O)[C@H](CC(=O)O)NC(=O)[C@H](CCC(N)=O)NC(=O)[C@H](CC(C)C)NC(=O)[C@H](CC(C)C)NC(=O)[C@H](CCCCN)NC(=O)[C@H](CCCNC(=N)N)NC(=O)[C@H](C)NC(=O)[C@H](CO)NC(=O)[C@H](CC(C)C)NC(=O)[C@H](CCC(N)=O)NC(=O)[C@H](CC)NC(=O)[C@H](CC(C)C)NC(=O)[C@@H](NC(=O)[C@H](CCCCN)NC(=O)[C@H](CCCNC(=N)N)NC(=O)[C@H](Cc1ccc(O)cc1)NC(=O)[C@H](CO)NC(=O)[C@H](CC(N)=O)NC(=O)[C@@H](NC(=O)[C@H](Cc1ccc(Cl)cc1)NC(=O)[C@@H](NC(=O)[C@H](C)NC(=O)[C@H](CC(=O)O)NC(=O)[C@@H](CCCNC(=N)N)NC(=O)[C@H](CCC(=O)O)NC(=O)C(C)C)[C@@H](C)CC)[C@@H](C)O)C(C)C)[C@@H](C)CC)C(=O)N[C@@H](CO)C(=O)N[C@@H](CCCNC(=N)N)C(N)=O` [Peptide 7] (Isobutyryl-E[dR]DAI[Phe(4-Cl)]TNSYRKVL[Abu]QLSARKLLQDI[Nle]SR-NH2) displayed an inhibition constant Ki of 1.35 ± 0.02 nM.

Broadly, the Ki is the dissociation constant of the complex between target and ligand, obtained from inhibition or displacement. A lower Ki goes with a stronger hold on the target.
